Measured values published in paper PMC5574609, “Potential role of an antimicrobial peptide, KLK in inhibiting lipopolysaccharide-induced macrophage inflammation” (PLoS ONE, 2017).
Bridge positions count the residues as written; N and C are the ends. Ends that are not written are not given here. Peptide text beside a SMILES is read from it.

Tests used:
Assay type in all cases: cell-based, murine
[1] = test system: NO production in LPS-stimulated RAW 264.7 cells; assay: LPS-stimulated NO production (nitrite, Griess); conditions: peptide 1 µg/mL, LPS 1 µg/mL, 48 h, mean ± SD
Description: (§1) RAW 264.7 cells at 1×10^5 cells/well were stimulated with 1 μg/mL LPS (Escherichia coli 0111:B4; Sigma, St. Louis, MO, USA) in the presence or absence of various concentrations of the test peptide and then incubated at 37°C in 5% CO2 for 48 h. Indomethacin (10 μM; Sigma, St. Louis, MO, USA) was included as a positive control. Where appropriate, cells were pre-incubated with the test peptide for 1 h, and washed three times with sterile PBS before incubation with LPS (1 μg/mL; Sigma). Culture supernatant was collected and the nitrite (a stable breakdown product of NO) accumulated in culture supernatant was then determined by the Griess reagent system (Promega, Madison, USA). Briefly, 50 μL of culture supernatant was mixed with an equal volume of 1% sulfanilamide in 5% phosphoric acid. After incubation for 10 min at room temperature, 50 μL of 0.1% N-1-napthylethylenediamine dihydrochloride was added and incubated for another 10 min at room temperature. The absorbance was measured at 540 nm using a microplate reader (Rayto RT-2100C, China) and nitrite concentrations were determined using a sodium nitrite standard curve. The PGE2 levels in culture medium were quantified by enzyme-immunoassay (R&D Systems, Minneapolis, MN, USA) according to the manufacturer’s instructions.

[2] = test system: IL-1β production in LPS-stimulated RAW 264.7 cells; assay: IL-1β production, sandwich ELISA; conditions: LPS 1 µg/mL, 72 h, mean ± SD
Description: (§2) The pro-inflammatory cytokines (IL-1β and TNF-α)were determined by sandwich enzyme-linked immunosorbent assay (ELISA). RAW 264.7 cells (1×10^5 cells/well) were seeded into a 96-well microtiter plate (Nunc™) and stimulated with LPS (1 μg/mL; Sigma) in the presence or absence of each peptide at different concentrations. After 72 h of incubation, the culture supernatant was collected and cytokine concentrations measured using ELISA MAX™ Deluxe Set (BioLegend, San Diego, CA, USA), following the manufacturer’s protocol.

[3] = test system: TNF-α production in LPS-stimulated RAW 264.7 cells; assay: TNF-α production, sandwich ELISA; conditions: LPS 1 µg/mL, 72 h, mean ± SD
Description: as §2

[4] = test system: PGE2 production in LPS-stimulated RAW 264.7 cells; assay: PGE2 production, enzyme-immunoassay; conditions: LPS 1 µg/mL + indomethacin 10 µM, 48 h
Description: as §1, with “Sigma,” for “RAW 264.7 cells at 1×10^5 cells/well were stimulated with 1 μg/mL LPS (Escherichia coli 0111:B4; Sigma,”, “Where appropriate, cells were pre-incubated with the test peptide for 1 h, and washed three times with sterile PBS before incubation with LPS (1 μg/mL;” left out, “After incubation for 10 min at room temperature, 50 μL of 0.1% N-1-napthylethylenediamine dihydrochloride was added and incubated for another 10 min at room temperature.” left out

[5] = test system: NO production in LPS-stimulated RAW 264.7 cells; assay: Pre-treatment with or without wash, then LPS; NO by Griess; conditions: 10 µg/mL pre-treatment 1 h, washed, LPS 1 µg/mL 48 h
Description: as §1, with “Briefly, 50 μL of culture supernatant was mixed with an equal volume of 1% sulfanilamide in 5% phosphoric acid. After incubation for 10 min at room temperature, 50 μL of 0.1% N-1-napthylethylenediamine dihydrochloride was added and incubated for another 10 min at room temperature.” left out
To investigate whether the ability of KLK peptide to inhibit LPS-induced signaling was due to KLK-LPS binding, experiments were performed in which RAW 264.7 cells were pre-treated with the KLK peptide for 1 h and then thoroughly washed to remove exogenous peptide. The cells were subsequently stimulated with LPS and pro-inflammatory mediator (NO) measured in cell-free supernatant after 48 hr. […]

With `CC(C)C[C@@H]1NC(=O)[C@H](CCCCN)NC(=O)[C@H](CC(C)C)NC(=O)[C@H](CC(C)C)NC(=O)[C@H](CC(C)C)NC(=O)[C@H](CC(C)C)NC(=O)[C@H](CC(C)C)NC(=O)[C@H](CCCCN)NC(=O)[C@H](CC(C)C)NC(=O)[C@H](CCCCN)NC(=O)[C@H](CCCCN)NC1=O` [CYCKLK] (HELM PEPTIDE1{K.L.K.L.L.L.L.L.K.L.K}$PEPTIDE1,PEPTIDE1,1:R1-11:R2$$$V2.0) the “inhibitory rate of LPS-stimulated NO production” value [1] was 79.26 ± 3.17%, the “IC50 for IL-1β production” value [2] was 8.83 ± 1.31 µg/mL and the “IC50 for TNF-α production” value [3] was 0.91 ± 0.07 µg/mL.

With `COc1ccc2c(c1)c(CC(=O)O)c(C)n2C(=O)c1ccc(Cl)cc1` [Indomethacin] the “PGE2” value ([4]; exp. 1) was 783.5 pg/mL, the “PGE2” value ([4]; exp. 2) was 716 pg/mL and the “PGE2” value ([4]; mean of n = 2) was 749.7 pg/mL.

For “CKLKLLLLLKLKC (disulfide 1-13 (inferred)) [SSKLK, KLK with cysteine residues added to both N and C-terminal ends]”, the “inhibitory rate of LPS-stimulated NO production” value [1] was 70.77 ± 1.55% and the “IC50 for TNF-α production” value [3] was 1.79 ± 0.01 µg/mL.

In the case of polymyxin B [PMB], the “effect of removing exogenous compound by washing before LPS on NO inhibition” value [5] is reported as “significantly affected”.
